Laboratory results from article PMC5566973 (Frontiers in Pharmacology, 2017).

How the values were obtained:
MDCK cell monolayers = assay: in vitro; details: 2 μM
Description: (§1) Caco-2, MDCK and MDCK-MRP2 cells were donated by Prof. Yan Xie and Yueming Ma from Shanghai University of Traditional Chinese Medicine. The cells were grown in culture dishes (Corning® Costar, Cambridge, MA, USA) using DMEM supplemented with 10% FBS, 1% NEAA and 1% penicillin-streptomycin solution. The cells were cultured in 5% CO2 and […] with 90% relative humidity at 37°C. The medium was replaced every other day during incubation. The cells were passaged every 3–4 days between 70 and 80% confluence at a 1:5 split ratio using 0.25% trypsin-EDTA. For the transport experiments, the cells from passages between 30 and 45 were seeded at 1 × 10^5 cells/cm^2 onto permeable polycarbonate inserts (0.45 μm pore size, seeding surface of 0.6 cm^2, Millipore, MA, USA) in 24-well plastic plates. The media in the culture plates were changed every other day for the first week after seeding and were replaced daily afterward. […] The cells were used for the transport experiments 21–28 (Caco-2) or 5–7 (MDCK and MDCK-MRP2) days after seeding, and only monolayers with a TEER-value above 420 Ω cm^2 were used during the studies.
(§2) The apical (AP) and basolateral (BL) sides are typical of polarized Caco-2, MDCK and MDCK-MRP2 epithelial cells. Before the experiments, the polarized cell monolayers were washed twice with warm HBSS solution and subsequently preincubated (37°C, 30 min). Afterward, HBSS solution on both sides of the cell monolayers was removed using a mini desktop vacuum pump. […] The final DMSO concentration in the HBSS or drug mixture was below 0.5%. The monolayers were incubated at 37°C, and 100 μL samples were taken at 30, 60, 90, and 120 min from the acceptor compartment and immediately replaced with the same volume of prewarmed fresh blank HBSS. TEER measurements for assessing the membrane integrity took place before and after the experiments.
(§3) The apparent permeability coefficients (Papp) and ER were calculated as Equations (2) and (3): […]
(§4) where dQ/dt is the steady-state flux, A is the membrane surface area, and C0 is the initial drug concentration in the donor compartment. PappBA is the Papp-value measured in BL to AP direction and PappAB is the Papp-value measured in AP to BL direction. It indicated the involvement of an active transport process when the ER-value is above 1.5 (Hubatsch et al., [2007]).

OATs = assay: in vitro; details: human, Caco-2, ER, Caco-2, 2 μM, + Cimetidine 0.05 mM (OATs)
Description: as §1, §2, §3, §4

BCRP = assay: in vitro; details: human, Caco-2, ER, Caco-2, 2 μM
Description: as §1, §2, §3, §4

Na+/K+-ATPase = assay: in vitro; details: human, Caco-2, 2 μM, + Sodium vanadate 0.05 mM (Na^+)
Description: as §1, §2, §3, §4

MRP2 = assay: in vitro; details: human, Caco-2, ER, Caco-2, 2 μM
Description: as §1, §2, §3, §4

PEPT1 = assay: in vitro; details: human, Caco-2, ER, Caco-2, 2 μM, + Gly-Sar 10 mM (PEPT1)
Description: as §1, §2, §3, §4

in vitro = assay: in vitro
Description: as §1, §2, §3, §4

MDR1 = assay: in vitro; details: human, Caco-2, ER, Caco-2, 2 μM, + Quinidine 0.1 mM (MDR1)
Description: as §1, §2, §3, §4

[1] = Control (pH 7.4, 37°C, without EDTA)
[2] = with EDTA 5 mM, listed as harmaline

For `COc1ccc2c3c([nH]c2c1)C(C)=NCC3` [Harmaline], the “PappAB at 37°C relative to 4°C” value (MDCK cell monolayers) was 3.77 folds, the “PappAB at pH 7.4 relative to pH 5.5” value (MDCK cell monolayers) was 1.56 folds and the PappAB (MDCK cell monolayers; 4°C) was 5.40 ± 0.99^*** 1 × 10^−6 cm/s. For the same molecule, the PappBA (MDCK cell monolayers; 4°C) was 6.65 ± 0.64^*** 1 × 10^−6 cm/s, the PappAB (MDCK cell monolayers; [1]) was 20.36 ± 1.82 1 × 10^−6 cm/s and the PappBA (MDCK cell monolayers; [1]) was 21.03 ± 2.11 1 × 10^−6 cm/s. The PappAB (MDCK cell monolayers; with EDTA 5 mM) was 29.43 ± 1.45^* 1 × 10^−6 cm/s, the PappBA (MDCK cell monolayers; with EDTA 5 mM) was 26.34 ± 0.93^* 1 × 10^−6 cm/s and the PappAB (MDCK cell monolayers; [2]) was 29.43 ± 1.45 1 × 10^−6 cm/s. For the same molecule, the PappBA (MDCK cell monolayers; [2]) was 26.34 ± 0.93 1 × 10^−6 cm/s, the efflux ratio (OATs) was 0.97 and the efflux ratio (BCRP; + Apigenin 0.025 mM (BCRP)) was 0.94. It also gave an efflux ratio (BCRP; + Ko143 0.01 mM (BCRP)) of 0.93, an efflux ratio (Na+/K+-ATPase; Caco-2, ER) of 1.27 and a Papp B→A (Na+/K+-ATPase; Caco-2, PappBA) of 26.9 ± 1.26 ×10⁻⁶ cm/s. For the same molecule, the efflux ratio (MRP2; + MK571 0.05 mM (MRP2)) was 0.93, the efflux ratio (MRP2; + Probenecid 0.2 mM (MRP2)) was 0.96 and the efflux ratio (PEPT1) was 0.95. The efflux ratio (in vitro; dog, MDCK, ER, 2 μM, 4°C) was 1.23, the efflux ratio (in vitro; dog, MDCK, ER, 2 μM, with EDTA 5 mM) was 0.9 and the efflux ratio (in vitro; dog, MDCK, ER, initial concentration 1 μM) was 1.23. The efflux ratio (in vitro; dog, MDCK, ER, initial concentration 2 μM) was 1.03, the efflux ratio (in vitro; dog, MDCK, ER, initial concentration 5 μM) was 1.16 and the Papp A→B (in vitro; dog, MDCK, PappAB, initial concentration 1 μM) was 15.8 ± 1.76 ×10⁻⁶ cm/s. For the same molecule, the Papp A→B (in vitro; dog, MDCK, PappAB, initial concentration 2 μM) was 20.4 ± 1.82 ×10⁻⁶ cm/s, the Papp A→B (in vitro; dog, MDCK, PappAB, initial concentration 5 μM) was 21.2 ± 1.32 ×10⁻⁶ cm/s and the Papp B→A (in vitro; dog, MDCK, PappBA, initial concentration 1 μM) was 19.5 ± 2.25 ×10⁻⁶ cm/s. The Papp B→A (in vitro; dog, MDCK, PappBA, initial concentration 2 μM) was 21 ± 2.11 ×10⁻⁶ cm/s, the Papp B→A (in vitro; dog, MDCK, PappBA, initial concentration 5 μM) was 24.5 ± 2.54 ×10⁻⁶ cm/s and the efflux ratio (in vitro; dog, MDCK, pH 5.5, ER, 2 μM, pH 5.5) was 1.18. The Papp A→B (in vitro; dog, MDCK, pH 5.5, PappAB, 2 μM, pH 5.5) was 13 ± 2.54 ×10⁻⁶ cm/s, the Papp B→A (in vitro; dog, MDCK, pH 5.5, PappBA, 2 μM, pH 5.5) was 15.4 ± 0.91 ×10⁻⁶ cm/s and the efflux ratio (in vitro; dog, MDCK, pH 7.4, ER, 2 μM, Control (pH 7.4, 37°C, without EDTA)) was 1.03. The efflux ratio (in vitro; human, Caco-2, ER, Caco-2, 2 μM, 4°C) was 1.15, the efflux ratio (in vitro; human, Caco-2, ER, Caco-2, 2 μM, Control (no inhibitor or substrate)) was 0.95 and the efflux ratio (in vitro; human, Caco-2, ER, Caco-2, 2 μM, with EDTA 5 mM) was 1.12. The efflux ratio (in vitro; human, Caco-2, ER, Caco-2, initial concentration 1 μM) was 0.93, the efflux ratio (in vitro; human, Caco-2, ER, Caco-2, initial concentration 2 μM) was 0.95 and the efflux ratio (in vitro; human, Caco-2, ER, Caco-2, initial concentration 5 μM) was 1.03. The Papp A→B (in vitro; human, Caco-2, PappAB, Caco-2, initial concentration 1 μM) was 27.4 ± 1.44 ×10⁻⁶ cm/s, the Papp A→B (in vitro; human, Caco-2, PappAB, Caco-2, initial concentration 5 μM) was 30.1 ± 3.01 ×10⁻⁶ cm/s and the Papp B→A (in vitro; human, Caco-2, PappBA, Caco-2, 2 μM, 4°C) was 8.71 ± 1.83 ×10⁻⁶ cm/s. The Papp B→A (in vitro; human, Caco-2, PappBA, Caco-2, initial concentration 1 μM) was 25.6 ± 1.95 ×10⁻⁶ cm/s, the Papp B→A (in vitro; human, Caco-2, PappBA, Caco-2, initial concentration 2 μM) was 26.4 ± 0.49 ×10⁻⁶ cm/s and the Papp B→A (in vitro; human, Caco-2, PappBA, Caco-2, initial concentration 5 μM) was 31 ± 1.4 ×10⁻⁶ cm/s. For the same molecule, the efflux ratio (in vitro; human, Caco-2, pH 5.5, ER, Caco-2, 2 μM, pH 5.5) was 0.88, the Papp A→B (in vitro; human, Caco-2, pH 5.5, PappAB, Caco-2, 2 μM, pH 5.5) was 7.6 ± 0.74 ×10⁻⁶ cm/s and the Papp B→A (in vitro; human, Caco-2, pH 5.5, PappBA, Caco-2, 2 μM, pH 5.5) was 6.72 ± 0.76 ×10⁻⁶ cm/s. The efflux ratio (in vitro; human, Caco-2, pH 7.4, ER, Caco-2, 2 μM, Control (pH 7.4, 37°C, without EDTA)) was 0.95 and the efflux ratio (MDR1) was 0.96.
